Read-outs that look alike come from different tables or passages of the source. Each block holds one compound with its values, some of them ahead of it.
Columns and labels:
[1] = Stability of the HPLC sample solution; assay type: physicochemical
Protocol: Sonicate for 5 minutes verifying complete solubilization.

[2] = in vivo, iv; cited from earlier work
[3] = 10° C., 30 days, in nitrogen, aluminium + polythene, MeOH
[4] = 10° C., 30 days, no nitrogen, polythene, MeOH
[5] = 20-25° C., 30 days, in nitrogen, aluminium + polythene, MeOH
[6] = 20-25° C., 30 days, no nitrogen, polythene, MeOH
[7] = t0, no nitrogen, polythene, diluent MeOH, % area 254 nm

Compound: 1H-benz[e]indole, 2-[7-[1,3-dihydro-1,1-dimethyl-3-(4-sulfobutyl)-2H-benz[e]indol-2-ylidene]-1,3,5-heptatrienyl]-1,1-dimethyl-3-(4-sulfobutyl) hydroxide, inner salt, sodium salt [compound of formula (I)]
time for which the sample solution is stable ([1]; sample preparation method 1: 40 mg in 50 ml mixture phase 70:30 A:B): ≤ 30 min
time for which the sample solution is stable ([1]; sample preparation method 2: 40 mg in 50 ml methanol): ≤ 30 min
half-life of elimination by the body [2]: 3 to 4 min

% rt 3.5 (A) [3]: nq
% rt 4.0 [3]: 0.02%
% rt 8.9 [3]: 0.04%
INNmax (unknown maximum impurity) % [3]: 0.07%
Purity [3]: 99.77%
% rt 3.5 (A) [4]: nq
% rt 4.0 [4]: 0.04%
% rt 8.9 [4]: 0.04%
INNmax (unknown maximum impurity) % [4]: 0.06%
Purity [4]: 99.84%
% rt 3.5 (A) [5]: nq
% rt 4.0 [5]: 0.03%
% rt 8.9 [5]: 0.05%
INNmax (unknown maximum impurity) % [5]: 0.08%
Purity [5]: 99.71%
% rt 3.5 (A) [6]: nq
% rt 4.0 [6]: 0.076%
% rt 8.9 [6]: 0.05%
INNmax (unknown maximum impurity) % [6]: 0.076%
Purity [6]: 99.78%
% rt 3.5 (A) [7]: nq
% rt 4.0 [7]: 0.02%
% rt 8.9 [7]: 0.03%
INNmax (unknown maximum impurity) % [7]: 0.07%
Purity [7]: 99.73%
Compound: CC1(C)C(/C=C/C=C/C=C/C=C2\N(CCCCS(=O)(=O)[O-])c3ccc4ccccc4c3C2(C)C)=[N+](CCCCS(=O)(=O)[O-])c2ccc3ccccc3c21.[Na+] [067/046]

Source: patent publication US20240158639A1, “PROCESS FOR PREPARING INDOCYANINE GREEN” (ICROM Srl, priority 2021, published 2024)
